Test results: PubChem BioAssay (NCI)
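These data come from cells grown in 96-well plates and exposed to compound for 48 hours at five concentrations. GI50 = concentration required for 50% inhibition of growth. TGI: total growth inhibition.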 Where a SMILES comes first, the peptide text is derived from it. [ ]: non-standard residue; d: D form. The star is where a group is joined. ξ: configuration not given here. X6 = FC(F)(F)c1cc(NC(=S)*)cc(C(F)(F)F)c1; ξF = NC(Cc1ccccc1)C(=O)O

Legend:
Assay in all cases: NCI anticancer screen, dose series, 48 h
HCT-116 colon = tested on: HCT-116 colon
HCT-15 colon = tested on: HCT-15 colon
HOP-62 NSCLC = tested on: HOP-62 NSCLC
HT29 colon = tested on: HT29 colon
NCI-H226 lung = tested on: NCI-H226 lung
OVCAR-3 ovarian = tested on: OVCAR-3 ovarian
OVCAR-5 ovarian = tested on: OVCAR-5 ovarian
SW-620 colon = tested on: SW-620 colon
TK-10 renal = tested on: TK-10 renal
RPMI-8226 leukemia = tested on: RPMI-8226 leukemia

Row | Compound | GI50 (HCT-116 colon) | TGI (HCT-116 colon) | GI50 (HCT-15 colon) | TGI (HCT-15 colon) | GI50 (HOP-62 NSCLC) | TGI (HOP-62 NSCLC) | GI50 (HT29 colon) | TGI (HT29 colon) | GI50 (NCI-H226 lung) | TGI (NCI-H226 lung) | GI50 (OVCAR-3 ovarian) | TGI (OVCAR-3 ovarian) | GI50 (OVCAR-5 ovarian) | TGI (OVCAR-5 ovarian) | GI50 (SW-620 colon) | TGI (SW-620 colon) | GI50 (TK-10 renal) | TGI (TK-10 renal) | GI50 (RPMI-8226 leukemia) | TGI (RPMI-8226 leukemia)
1 | COC(=O)[C@@H](NC(=O)CNC(=O)[C@H]1CCCN1C(=O)C(Cc1ccccc1)NC(=S)Nc1cc(C(F)(F)F)cc(C(F)(F)F)c1)C(C)C (stereo partly drawn) (X6-[ξF][dP]GV-OMe) | 3.34 µM | 10.7 µM | 2.29 µM | 5.37 µM | 1.92 µM | 3.62 µM | 2.44 µM | 5.75 µM | 1.65 µM | 3.42 µM | 2.96 µM | 8.48 µM | 1.93 µM | 3.64 µM | 3.72 µM | 24.5 µM | 4.45 µM | 18.8 µM |  | 
2 | O=C(/C=C/c1ccccc1)NC1C=Nc2ccc(Cl)cc2NC1=O (stereo not drawn) |  | 85.7 µM |  | 61 µM |  | > 100 µM |  | > 100 µM |  | > 100 µM |  | 56.4 µM |  | > 100 µM |  | 24.2 µM |  | > 100 µM |  | 
3 | Cc1ccc(NC2=C(Cl)C(=O)N(Cc3ccccc3)C2=O)cc1O | 37.7 µM | > 100 µM | 33.5 µM | > 100 µM | 34.8 µM | > 100 µM |  |  | 18.1 µM | 60.6 µM | 20.6 µM | 70 µM | > 100 µM | > 100 µM | 39.2 µM | > 100 µM | 31.3 µM | > 100 µM | 9.26 µM | 47.5 µM
4 | CC1=C(C(=O)Nc2ccc(Cl)c(Cl)c2)C(c2cccc(Oc3ccccc3)c2)NC(=S)N1 (stereo not drawn) | 20.6 µM | > 50 µM | 8.93 µM | 17.4 µM | 14.2 µM | 24.2 µM |  |  | 9.68 µM | 19.5 µM | 1.87 µM | 8.15 µM | 9.38 µM | 18.7 µM | 8.23 µM | 15 µM | 11.3 µM | 19.7 µM | 11.2 µM | > 50 µM
5 | COc1cc2c(cc1OC)-c1c3cc(O)ccc3nn[n+]1CC2 |  | > 100 µM |  |  |  | > 100 µM |  | > 100 µM |  | > 100 µM |  | > 100 µM |  |  |  | > 100 µM |  | > 100 µM |  | > 100 µM
6 | COc1cc(CNc2cnc3cc(N)cc(N)c3n2)cc(OC)c1 | 16.3 µM | 29.8 µM | 17.6 µM | 38.1 µM | 14.9 µM | 44.1 µM |  |  | 17.4 µM | 55.3 µM | 19.6 µM | 48.3 µM | 17.6 µM | 48 µM | 24.6 µM | 64.2 µM | 18.4 µM | 57.6 µM | 6 µM | 20 µM
7 | CCCCOC(=O)C1OC(O[C@H]2CCC3(C)C(CCC4(C)C3CC=C3C5CC(C)(C)CCC5(C(=O)O)CC[C@]34C)C2(C)C)C(OC2OC(CO)C(O)C(O)C2O)C(OC2OC(CO)C(O)C(O)C2O)C1O (stereo partly drawn) | 20.6 µM | 42.7 µM | 20.9 µM | 51 µM | 19.4 µM | 35.6 µM | 34.2 µM | > 100 µM | 29.2 µM | 66.1 µM | > 100 µM | > 100 µM | 28.8 µM | 56.4 µM | 36.6 µM | > 100 µM | 33.3 µM | > 100 µM |  | 
8 | N#CCCN(CCC#N)c1ccc(/C=C2\N=C(c3cc([N+](=O)[O-])ccc3Cl)OC2=O)cc1 |  | > 100 µM |  | > 100 µM |  | 95.7 µM |  | > 100 µM |  | 44 µM |  | 70.7 µM |  | > 100 µM |  | > 100 µM |  |  |  | > 100 µM
9 | O=C(O)CSc1ccc([N+](=O)[O-])cc1[N+](=O)[O-] |  | > 100 µM |  | > 100 µM |  | > 100 µM |  | > 100 µM |  |  |  | > 100 µM |  | > 100 µM |  | > 100 µM |  | > 100 µM |  | > 100 µM
10 | CN1C(=O)C(C)(C)C2(SC(C)(C)C2(C)C)N(C)C1=S (stereo not drawn) |  | > 100 µM |  | > 100 µM |  | > 100 µM |  | > 100 µM |  | > 100 µM |  | > 100 µM |  | > 100 µM |  | > 100 µM |  |  |  | > 100 µM
11 | CCCCCCCCCCCCCCCCCC(CCCCCCCCCCCCCCCCC)OP(=O)(O)O |  | > 100 µM |  | > 100 µM |  |  |  | > 100 µM |  | > 100 µM |  | > 100 µM |  | > 100 µM |  | > 100 µM |  | > 100 µM |  | > 100 µM
12 | Cc1cc(C)nc(NS(=O)(=O)c2ccc(NC(=O)c3ccc(Cl)c4c(Nc5ccc(S(=O)(=O)Nc6nc(C)cc(C)n6)cc5)c5ccccc5nc34)cc2)n1 |  |  |  | > 100 µM |  | > 100 µM |  | > 100 µM |  |  |  | > 100 µM |  | 32.4 µM |  | > 100 µM |  | 83.1 µM |  | > 100 µM
13 | O=C(COc1ccc(Br)cc1Br)N1N=C(c2ccc([N+](=O)[O-])o2)CC1(O)c1ccccc1 (stereo not drawn) |  | 33.2 µM |  | 18.7 µM |  | 27.5 µM |  | 48 µM |  | 36.4 µM |  | 20.2 µM |  | 98.2 µM |  | 33.3 µM |  |  |  | 8.96 µM
14 | CCOC(=O)CN1C(=O)c2cccc3cc([N+](=O)[O-])cc(c23)C1=O |  | 3 µM |  | 3.47 µM |  | 32.3 µM |  | 25.4 µM |  | 23 µM |  | 14.9 µM |  | 28.9 µM |  | 2.99 µM |  | 30.7 µM |  | 
15 | Brc1ccc(N=c2nc3ccccn3n3nc(-c4ccccc4)cc23)cc1 |  | > 100 µM |  | > 100 µM |  | 32.8 µM |  | > 100 µM |  | > 100 µM |  | 72.1 µM |  |  |  | > 100 µM |  | 95.4 µM |  | > 100 µM
16 | N#CC1C(C#N)C2(c3ccccc3)C(c3ccccc3)=NN(c3ccccc3)CC12 (stereo not drawn) |  | > 100 µM |  | > 100 µM |  |  |  |  |  | > 100 µM |  | > 100 µM |  | > 100 µM |  | > 100 µM |  | > 100 µM |  | > 100 µM
17 | CN(C)C(=N)c1ccccc1 |  | > 100 µM |  |  |  | > 100 µM |  | > 100 µM |  | > 100 µM |  | > 100 µM |  | > 100 µM |  | > 100 µM |  | > 100 µM |  | 
18 | COC1(OC)CCC2C1C1CCC(OC)(OC)C21 (stereo not drawn) |  | > 50 µM |  | > 50 µM |  | > 50 µM |  | > 50 µM |  | > 50 µM |  | > 50 µM |  | > 50 µM |  | > 50 µM |  |  |  | > 50 µM
